Measured values published in patent US20070105721A1, “Vinylogous 4-Hpyrones and their use in promoting plant growth” (priority 2003, published 2007).

Assays:
Lawrencella davenportii = assay: Germination on moist filter paper in petri dishes; format: in vivo; conditions: SW 1/10 dilution, compound 1a 10 ppb
Opercularia vaginate = assay: Seed priming; format: in vivo; conditions: 24 hr priming in 100 ppb compound 1a, re-drying and sowing; also: tested at 0.1 ppm
Procedure: (§1) For testing on Australian species, three replicates of 25 seeds were soaked in one of de-ionised DI water or 100 ppb compound 1a for 24 hr at 23° C. The seeds were re-dried at 23° C. for 24 hr and incubated on Petri dishes containing 0.7% (w/v) water agar in constant darkness at 18° C. Germination (radicle emergence) was recorded every 2-3 days until germination had ceased.

Centrolepis aristate = assay: Seed priming; format: in vivo; conditions: 24 hr priming in 100 ppb compound 1a, re-drying and sowing; also: tested at 0.1 ppm
Procedure: as §1

Cherianthera preissiana = assay: Seed priming; format: in vivo; conditions: 24 hr priming in 100 ppb compound 1a, re-drying and sowing; also: tested at 0.1 ppm
Procedure: as §1

Borya sphaerocephala = assay: Seed priming; format: in vivo; conditions: 24 hr priming in 100 ppb compound 1a, re-drying and sowing; also: tested at 0.1 ppm
Procedure: as §1

Phyllanthus calycinus = assay: Seed priming; format: in vivo; conditions: 24 hr priming in 100 ppb compound 1a, re-drying and sowing; also: tested at 0.1 ppm
Procedure: as §1

[1] = tested on: somatic embryos induced from shoot and coleoptile explants of Baloskion tetraphyllum; assay: Reactivity of compound 1a with somatic tissue; format: cell-based; conditions: for Frequency of shoot formation / Number of shoots: after culturing for 20 days, compound 1a at 10 ppb; as to Frequency of shoot formation: tested at 0.01 ppm; as to Number of shoots: tested at 0.01 ppm
Procedure: Seeds were cultured on PGR-free 1/2 MS medium for 4 weeks in darkness, then 3 mm coleoptile sections were removed under aseptic conditions and explanted to culture media supplemented with […] 2,4-dichlorophenoxyacetic acid and compound 1a (0, 1.0, 10, 100 ppb, respectively), with incubation in darkness at 22-25° C. Each plate was inoculated with 10 coleoptile sections and every treatment was replicated by 6 plates. […] Shoots of Baloskion tetraphyllum were cultured on 1/2 MS basal medium supplemented with […] in 16 hr light culture (PPFD of 30 μmolm^−2s^−1). After two months, whole shoots were trimmed of upper leaf and basal roots to 4 mm in length, then explanted to culture media with 1 mM 2,4-dichlorophenoxyacetic acid and supplemented with different concentrations of compound 1a (0, 1.0, 10, 100 ppb, respectively) and incubated in darkness at 22-25° C. Each plate was inoculated with 10 trimmed shoots and every treatment replicated with 4 plates. Somatic embryogenesis and plant regeneration was investigated at various intervals.

test species = assay: Germination tests in a range of test species; format: in vivo; conditions: each of the test species
Procedure: (§2) Grand Rapids Lettuce seeds (Waltham strain) were obtained from R.B. Dessert Seed Co. and were frozen in sachets until use. For testing of aqueous samples, 2.5 mL of test solution was applied to three replicates of 40-50 seeds in Petri dishes (90 mm) lined with two layers of Whatman No. 1 filter paper (7 cm). Millipore filtered water (MP water) was used as a control for each experiment and dilutions of each sample were used to ensure the optimum concentration range for activity. Fractions were reconstituted to their original concentration (before fractionation) and dilutions were made using MP water. Petri dishes were sealed with a layer of plastic wrap, and stored in a light proof container. All manipulations involving the seed were carried out in a dark room and germinants, based on the appearance of a radicle, were scored after 48 hours incubation.
Conostylis aculeata and Stylidium affine seeds were obtained from Nindethana seed service and stored before use. For testing of aqueous samples, three replicates of 20-30 sterilised seeds were added to UV sterilised petri dishes (90 mm), containing two Whatman No. 1 filter papers (7 cm) moistened with the filtered test solution (2.5 mL, 0.22 μm). […] The seeds were scored on a weekly basis with optimum germination achieved between 4-6 weeks.

[2] = tested on: Grand Rapids Lettuce seeds (Waltham strain); assay: Grand Rapids bioassay; format: in vivo
Procedure: as §2

[3] = tested on: Acetosa vesicaria (ruby dock); assay: Weed germination enhancement; format: in vivo; conditions: compound 1a at 100 ppb; also: tested at 0.1 ppm
Procedure: (§3) For each species, four replicates of 25 seeds were placed on Petri dishes lined with seed germination paper. The Petri dishes were moistened with de-ionised water (control) or 100 ppb compound 1a. All species were incubated in constant darkness at 12/12 hr alternating temperatures of 7/18° C., 13/26° C. or 18/33° C. Germination (radicle emergence) was recorded every 2-3 days until germination had ceased.

Avena fatua (wild oats) = assay: Weed germination enhancement; format: in vivo; conditions: compound 1a at 100 ppb; mean ± standard error; also: tested at 0.1 ppm
Procedure: as §3

[4] = tested on: Brassica tournefortii (wild turnip); assay: Weed germination enhancement; format: in vivo; conditions: compound 1a at 100 ppb; also: tested at 0.1 ppm
Procedure: as §3

[5] = tested on: Petroselinium crispum (parsley) seeds; assay: Seed vigour enhancement; format: in vivo; conditions: 100 ppb compound 1a; also: tested at 0.1 ppm
Procedure: (§4) For each species, five replicates of 20 seeds were placed on Petri dishes lined with seed germination paper. The Petri dishes were moistened with de-ionised water (control) or 100 ppb compound 1a. All species were incubated in constant darkness at 12/12 hr alternating temperatures of 7/18° C., 13/26° C. or 18/33° C. Germination was scored on radicle emergence and was recorded every 2-3 days until germination had ceased.

[6] = tested on: Allium ampeloprasum (leek) seeds; assay: Seed vigour enhancement; format: in vivo; conditions: 100 ppb compound 1a; also: tested at 0.1 ppm
Procedure: as §4

[7] = tested on: Podolepis canescens seeds; assay: Compound 1a as a replacement for light or gibberellic acid; format: in vivo; conditions: 1, 10 or 100 ppb compound 1a; similar to gibberellic acid
Procedure: Three replicates of 50 seeds of Podolepis canescens were placed on Petri dishes containing filter paper moistened with de-ionised water (control), 1, 10 or 100 ppb compound 1a or 1000 ppm gibberellic acid. The Petri dishes were incubated at 12/12 hr alternating temperatures of 7/18° C., 13/26° C. or 18/33° C. and incubated in white light or continuous darkness. All of the treatments were added to the Petri dishes in complete darkness prior to moving to the incubators. Germination was recorded following 7 days incubation.

[8] = 26/13 ° C. 12/12 hr alternating
[9] = 33/18 ° C. 12/12 hr alternating

SMILES: Cc1c2ccocc-2oc1=O [Compound 1a, 3-Methyl-2H-furo[2,3-c]pyran-2-one]
- Germination, Lawrencella davenportii (Lawrencella davenportii): 56.3 (±8.5) b %
- Germination (%), Opercularia vaginate (Opercularia vaginate): 22.7 ± 7.4 b %
- Germination (%), Centrolepis aristate (Centrolepis aristate): 88.0 ± 0.0 b %
- Germination (%), Cherianthera preissiana (Cherianthera preissiana): 46.7 ± 4.8 b %
- Germination (%), Borya sphaerocephala (Borya sphaerocephala): 13.3 ± 4.8 b %
- Germination (%), Phyllanthus calycinus (Phyllanthus calycinus): 17.3 ± 1.3 b %
- Frequency of shoot formation ([1]; Coleoptile explants): 37.0
- Number of shoots ([1]; Coleoptile explants): 4.5
- Frequency of shoot formation ([1]; Shoot explants): 58.6
- Number of shoots ([1]; Shoot explants): 7.8
- root formation and plantlet maturation ([1]; once somatic embryos are induced): significantly enhances
- plantlet recovery and regeneration ([1]; somatic embryos transferred to hormone-free medium): significantly improved
- effect on the induction phase of somatic embryogenesis ([1]; with 2,4-dichlorophenoxyacetic acid): no apparent effect
- concentration for which germination promoting activity has been shown (test species): 100 ppt
- Grand Rapids germination ([2]; 1/1 000 000 dilution of compound 1a 1 mg/L): 60.9 (2.5) %
- Grand Rapids germination ([2]; 1/10 000 dilution (of neat SW; of compound 1a 1 mg/L)): 96.4 (0.6) %
- Grand Rapids germination ([2]; 1/10 dilution (of neat SW; of compound 1a 1 mg/L)): 98.4 (0.9) %
- Grand Rapids germination ([2]; 1/100 000 dilution of compound 1a 1 mg/L): 76.9 (1.5) %
- Grand Rapids germination ([2]; 1/100 dilution (of neat SW; of compound 1a 1 mg/L)): 98.4 (1.6) %
- level at which compound 1a is active in promoting germination ([2]; 1/100 dilution of the estimated content of neat smoke water (1 mg per 10 000 L)): 10^−10 mol/L
- Grand Rapids germination ([2]; 1/1000 dilution (of neat SW; of compound 1a 1 mg/L)): 97.0 (0.5) %
- Grand Rapids germination ([2]; Neat (neat SW; compound 1a 1 mg/L), mean (SEM)): 99.4 (0.6) %
- inhibition of germination ([2]; at higher concentrations of 1a compared to the amount in smoke water): no inhibition of germination is observed
- Germination, Grand Rapids ([2]; compounds isolated from smoke, mean (SEM)): 99.3 (0.7) %
- germination percentage, Acetosa vesicaria (ruby dock) [3]: 30.0 ± 7.6 b %
- germination percentage, Avena fatua (wild oats) (Avena fatua (wild oats)): 38.0 ± 4.3 b %
- germination percentage, Brassica tournefortii (wild turnip) [4]: 92.0 ± 2.8 b %
- Germination (%), Parsley ([5]; 18/7 ° C. 12/12 hr alternating): 27.0 ± 1.9 a %
- Germination (%), Parsley [5, 8]: 70 ± 5.6 b %
- Germination (%), Parsley [5, 9]: 29.0 ± 6.8 b %
- Germination (%), Leek ([6]; 18/7 ° C. 12/12 hr alternating, mean ± standard error): 97.1 ± 0.9 a %
- Germination (%), Leek [6, 8]: 92.0 ± 4.3 a %
- Germination (%), Leek [6, 9]: 72.0 ± 6.3 b %
- germination in the dark of light-requiring Podolepis canescens [7]: stimulates germination in the dark
